# Data as given in patent US12110294B2, “CD73 compounds” (Gilead Sciences, Inc., priority 2020, dated 2024).
# Molecular target: T1, CD73 activity in MDA-MB-231-GFP cells (Homo sapiens, UniProt P21589)
# T1 construct: endogenous in cells; host or cells: MDA-MB-231-GFP cells
# T1 sequence (P21589 27-549): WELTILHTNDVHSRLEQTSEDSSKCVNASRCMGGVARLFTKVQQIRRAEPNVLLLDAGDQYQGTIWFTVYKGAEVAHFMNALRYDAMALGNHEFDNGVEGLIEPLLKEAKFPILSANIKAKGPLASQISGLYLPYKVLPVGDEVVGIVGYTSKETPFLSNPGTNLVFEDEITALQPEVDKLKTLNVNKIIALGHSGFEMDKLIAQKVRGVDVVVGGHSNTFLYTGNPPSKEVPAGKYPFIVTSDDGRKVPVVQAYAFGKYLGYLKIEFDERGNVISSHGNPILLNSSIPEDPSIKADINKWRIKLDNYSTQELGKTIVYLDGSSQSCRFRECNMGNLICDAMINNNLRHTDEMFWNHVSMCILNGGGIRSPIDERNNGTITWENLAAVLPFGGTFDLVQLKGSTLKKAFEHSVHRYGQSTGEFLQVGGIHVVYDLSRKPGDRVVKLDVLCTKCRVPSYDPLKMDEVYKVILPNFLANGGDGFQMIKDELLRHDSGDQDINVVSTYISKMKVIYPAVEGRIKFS
# Assay: MDA-MB-231 Cell Based CD73 Activity Assay (DMEM)
# Conditions: 3000 cells per well, DMEM medium with 10% human plasma, overnight compound treatment, AMP 200 uM
# Description: MDA-MB-231 Cell Based CD73 Activity Assay (DMEM) MDA-MB-231-GFP cells were seeded in 384-well plates (Greiner 781946) at a density of 3000 cells per well in 50 μL of DMEM medium with 10% HP (human plasma). Cells were plated into assay plate with compounds pre-spotted, for an overnight compound treatment. 50 uL of 400 uM AMP (final concentration will be 200 uM) was added using Bio-tek dispenser. Plates were incubated for 100 mins. […] The samples were analyzed using Rapid fire.
row,Compound,EC50
1,"Cn1cc([C@H]2C[C@@H]2c2cc(-c3c[nH]c(=O)[nH]c3=O)nn3ccnc23)ccc1=O (racemic) [Example 184, 5-(8-((1S,2S)-2-(1-methyl-6-oxo-1,6-dihydropyridin-3-yl)cyclopropyl)imidazo[1,2-b]pyridazin-6-yl)pyrimidine-2,4(1H,3H)-dione]",9.45 nM
2,"CC1(C)C(=O)N(CC(F)(F)F)c2cc([C@H]3C[C@@H]3c3cc(-c4c[nH]c(=O)[nH]c4=O)nn4c(Cl)cnc34)ccc21 (racemic) [Example 212, 5-[3-chloro-8-[(1S,2S)-2-[3,3-dimethyl-2-oxo-1-(2,2,2-trifluoroethyl)indolin-6-yl]cyclopropyl]imidazo[1,2-b]pyridazin-6-yl]-1H-pyrimidine-2,4-dione]",0.72 nM
3,"O=c1[nH]cc(-c2cc([C@H]3C[C@@H]3c3ccc4c(F)nn(CC(F)(F)F)c4c3)c3ncc(Cl)n3n2)c(=O)[nH]1 (racemic) [Example 213, 5-[3-chloro-8-[(1S,2S)-2-[3-fluoro-1-(2,2,2-trifluoroethyl)indazol-6-yl]cyclopropyl]imidazo[1,2-b]pyridazin-6-yl]-1H-pyrimidine-2,4-dione]",0.45 nM
4,"O=c1[nH]cc(-c2cc([C@H]3C[C@@H]3c3ccc4ncsc4c3)c3nccn3n2)c(=O)[nH]1 (racemic) [Example 276, 5-(8-((1S,2S)-2-(benzo[d]thiazol-6-yl)cyclopropyl)imidazo[1,2-b]pyridazin-6-yl)pyrimidine-2,4(1H,3H)-dione]",2.78 nM
5,"O=c1[nH]cc(-c2cc([C@H]3C[C@@H]3c3ccc4c(c3)OC(F)(F)O4)c3ncc(F)n3n2)c(=O)[nH]1 (racemic) [Example 278, 5-(8-((2S,2S)-2-(2,2-difluorobenzo[d][1,3]dioxol-5-yl)cyclopropyl)-3-fluoroimidazo[1,2-b]pyridazin-6-yl)pyrimidine-2,4(1H,3H)-dione]",38.9 nM
6,"O=c1[nH]cc(-c2cc([C@H]3C[C@@H]3c3ccc(OC(F)(F)F)cc3F)c3nccn3n2)c(=O)[nH]1 (racemic) [Example 280, 5-(8-((1S,2S)-2-(2-fluoro-4-(trifluoromethoxy)phenyl)cyclopropyl)imidazo[1,2-b]pyridazin-6-yl)pyrimidine-2,4(1H,3H)-dione]",77.8 nM
7,"COC(=O)c1ccc([C@H]2C[C@@H]2c2cc(-c3c[nH]c(=O)[nH]c3=O)nn3ccnc23)cc1 (racemic) [Example 281, methyl 4-((2S,2S)-2-(6-(2,4-dioxo-1,2,3,4-tetrahydropyrimidin-5-yl)imidazo[1,2-b]pyridazin-8-yl)cyclopropyl)benzoate]",8.23 nM
8,"COC(=O)c1cccc([C@H]2C[C@@H]2c2cc(-c3c[nH]c(=O)[nH]c3=O)nn3ccnc23)c1 (racemic) [Example 282, methyl 3-((2S,2S)-2-(6-(2,4-dioxo-1,2,3,4-tetrahydropyrimidin-5-yl)imidazo[1,2-b]pyridazin-8-yl)cyclopropyl)benzoate]",11.7 nM
9,"NC(=O)c1cccc([C@H]2C[C@@H]2c2cc(-c3c[nH]c(=O)[nH]c3=O)nn3ccnc23)c1 (racemic) [Example 284, 3-((1S,2S)-2-(6-(2,4-dioxo-1,2,3,4-tetrahydropyrimidin-5-yl)imidazo[1,2-b]pyridazin-8-yl)cyclopropyl)benzamide]",3.49 nM
10,"CNC(=O)c1ccc([C@H]2C[C@@H]2c2cc(-c3c[nH]c(=O)[nH]c3=O)nn3ccnc23)cc1 (racemic) [Example 285, 4-((2S,2S)-2-(6-(2,4-dioxo-1,2,3,4-tetrahydropyrimidin-5-yl)imidazo[1,2-b]pyridazin-8-yl)cyclopropyl)-N-methylbenzamide]",2.99 nM
11,"CNC(=O)c1cccc([C@H]2C[C@@H]2c2cc(-c3c[nH]c(=O)[nH]c3=O)nn3ccnc23)c1 (racemic) [Example 286, 3-((2S,2S)-2-(6-(2,4-dioxo-1,2,3,4-tetrahydropyrimidin-5-yl)imidazo[1,2-b]pyridazin-8-yl)cyclopropyl)-N-methylbenzamide]",2.42 nM
